From patent US20260184700A1, “PDK1 REGULATORY COMPOUND AND COMPOSITION CONTAINING THE SAME” (PROVIBIO CO., LTD., priority 2024, published 2026)

Assays:
[1] = system: T cells isolated from mouse spleen; test: T cell proliferation inhibition, CFSE flow cytometry, CD3/CD28 activation; assay type: cell-based; settings: CD3/CD28 activated, 3 days
Method in brief: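 Splenic T cells from 7-week-old C57BL/6 mice were MACS-isolated, CFSE-labelled, seeded at 2×10^5 cells/well and activated with anti-CD3/anti-CD28 (0.5 μg/mL each). Compound at 10 nM–50 μM (six levels, triplicate) was present for 3 days at 37 °C before flow cytometric readout of proliferation inhibition rate.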

[2] = system: Human Colorectal Carcinoma cell line, HCT-116; test: Relative cell viability, CCK-8, HCT-116; assay type: cell-based; settings: 48 hours
Protocol: Human-derived breast cancer cell line MCF-7, human-derived lung cancer cell line A549, human-derived colorectal cancer cell line HCT-116, human pancreatic cancer cell line AsPC-1, glioblastoma cell line A172, and melanoma cell line Malme-3M were obtained from the Korean Cell Bank. gastric cancer cell line SNU-719, and bladder cancer cell line T24 were cultured in RPMI-1640 medium containing 10% FBS.
Following stabilization, the cells were harvested using Trypsin-EDTA treatment, centrifuged at 1,200 rpm for 3 minutes, the supernatant was removed, and the cells were resuspended in the same medium. They were then seeded into a 96-well plate (Costar 96-well cell culture plate, Corning) at 100 μL per well, and the conditions were adjusted as indicated in Table 5.
The cells were cultured in a 5% CO2 incubator at 37° C. for 24 hours, and after stabilization of the cells, each plate was washed with 200 μL of PBS per well and treated with 50 μL of culture medium per well.
After that, 10 μL of CCK-8 was added to each well, and the plate was incubated again at 37° C. in a 5% CO2 incubator for 2 hours.
In other words, when the survival rate of untreated cells (DMSO) is set at 100%, the relative cell survival rate in each group treated with the drug at different concentrations is indicated.

[3] = target: T1, full-length (PDK1-FL) protein of human-derived PDK1 (Homo sapiens, UniProt O15530); test: Microscale Thermophoresis (MST) binding, full-length PDK1; settings: Kd ratio
T1 construct: the full-length (PDK1-FL) protein of human-derived PDK1; inferred from the Ni-NTA purification; made in house; host or cells: Sf9 insect cells, baculovirus
T1 sequence (O15530 1-556): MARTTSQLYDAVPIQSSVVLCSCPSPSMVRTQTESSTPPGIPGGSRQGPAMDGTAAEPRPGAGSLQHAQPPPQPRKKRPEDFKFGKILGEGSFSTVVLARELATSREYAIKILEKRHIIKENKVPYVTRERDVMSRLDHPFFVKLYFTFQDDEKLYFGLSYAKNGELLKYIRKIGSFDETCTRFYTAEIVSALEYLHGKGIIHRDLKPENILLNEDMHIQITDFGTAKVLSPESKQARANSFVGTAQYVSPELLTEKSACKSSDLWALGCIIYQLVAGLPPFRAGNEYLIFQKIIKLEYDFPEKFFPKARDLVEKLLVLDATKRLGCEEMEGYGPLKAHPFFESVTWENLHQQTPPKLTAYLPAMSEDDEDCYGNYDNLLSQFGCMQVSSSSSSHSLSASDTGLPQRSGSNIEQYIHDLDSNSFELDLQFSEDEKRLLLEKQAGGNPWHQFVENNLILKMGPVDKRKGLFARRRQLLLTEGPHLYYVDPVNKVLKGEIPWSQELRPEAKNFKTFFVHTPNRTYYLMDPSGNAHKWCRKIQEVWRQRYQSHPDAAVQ
Protocol: Microscale Thermophoresis (MST) analysis was performed to quantitatively measure the binding affinity between PDK1 protein and substrate peptides (PDKTide) or the company-developed low-molecular-weight compound (GO88).
The target proteins were the full-length (PDK1-FL) protein of human-derived PDK1 and the Protein Kinase Domain (PKD) fragment, which were expressed using a baculovirus expression system in insect cell lines (Sf9).
The purity of the purified proteins was confirmed by SDS-PAGE and Coomassie Brilliant Blue staining.
The purified protein was labeled with a fluorescent label using the Monolith NT™ RED-NHS Protein Fluorescent Labeling Kit (NanoTemper).
Specifically, 20 μM of the protein was dissolved in PBS (pH 7.4) buffer, mixed with the fluorescent reagent, and reacted at room temperature under dark conditions for 30 minutes. The mixture was then buffered with MST analysis buffer (50 mM HEPES, 150 mM NaCl, 1 mM DTT, 0.05% Tween-20, pH 7.5). […]
The reaction samples were injected into an MST-specific capillary (NanoTemper) and analyzed using a Monolith NT.115 device (NanoTemper) under laser intensity conditions. […]
The measured data were analyzed using MO.Affinity Analysis software (NanoTemper), and the dissociation constant (Kd) was calculated from the binding curve.

CC1(C)CN(CCCCCCCCCCCCC(=O)Nc2nc(N)c3[nH]cnc3n2)CCO1 [Compound 11, 12-[4-(2,2-dimethylmorpholin-4-yl)]dodecyl-N-(6-aminopurine-2-yl)carboxamide]
Proliferation inhibition rate (%) ([1]; compound 100 nM): 100.00% | Proliferation inhibition rate (%) ([1]; compound 1 μM): 100.00% | Proliferation inhibition rate (%) ([1]; compound 10 μM): 100.00% | Proliferation inhibition rate (%) ([1]; compound 30 μM): 100.00% | Proliferation inhibition rate (%) ([1]; compound 50 μM): 100.00% | Relative cell viability (%) ([2]; HCT-116, 1 μM): 21.36% | Relative cell viability (%) ([2]; HCT-116, 10 μM): 24.91% | Relative cell viability (%) ([2]; HCT-116, 30 μM): 24.78% | Relative cell viability (%) ([2]; HCT-116, 50 μM): 25.26%

Nc1ncccc1C(=O)NCCCCCCCCCCCCN1CCNCC1 [Compound 14, 2-Amino-N-(12-(piperazin-1-yl)dodecyl)nicotinamide]
binding affinity of full-length PDK1 compared to the PDK fragment [3]: six times stronger binding affinity
